Tested on: learning and memory process of mouse (memory and learning impediment induced by scopolamine)
Test: Step-down platform electrical-shock avoidance test of learning and memory (RT, EN) in scopolamine-treated mice
Format: in vivo
Conditions: for Memory Results EN / Learning Results EN / Memory Results RT / Learning Results RT: scopolamine 1 mg/kg; for Memory Results EN / Memory Results RT: memory test 24 hrs later; for Learning Results EN / Learning Results RT: training trial
Method: The pharmacological tests of memory-enhancing peptide in this invention have been performed as following: the animals have been divided into three groups: drug administration group, control group and model group, with each group administrated with memory-enhancing peptide, saline and scopolamine respectively. In the test, the groups except control group were injected with scopolamine after the administration of medicine about 50 min., 10 min. later, the training began. First, the animals will be put into reaction box for 3 min. before each trails to familiarize them with the environment. Then, the reaction box are charged with 36V alternating current. When the animal subjects to electrical shock, it will jump up to the central platform to avoid harmful stimulation as a normal response. Most of animals may be return to the copper curdles twice or even more times, but they will jump back to the platform swiftly as the results of electrical shock. Each test trail will be performed for 5 min. and two following indices will be used to represent the learning results: (I) the number of total error (EN) during the whole training period; (2) the reaction time (RT) for the first returning to the copper curdle in the trail. The trails will repeat again 24 hrs later as memory test.

Compound | Memory Results EN (Huperzine A 100 μg/kg) | Learning Results EN (Huperzine A 100 μg/kg, number of total errors) | Effect on memory and learning impediment induced by scopolamine, compared with model group (0.5 μg and 1 μg/kg, longer incubation period and lesser error numbers, P<0.01 vs model group) | Effect on scopolamine-induced memory and learning impediment compared with Huperzine A (0.5 μg/kg and 1 μg/kg versus Huperzine A 100 μg/kg) | Memory Results EN (drug dosage 0.25 μg/kg) | Memory Results RT (drug dosage 0.25 μg/kg) [s] | Learning Results EN (drug dosage 0.25 μg/kg) | Learning Results RT (drug dosage 0.25 μg/kg) [s] | Memory Results EN (drug dosage 0.5 μg/kg) | Memory Results RT (drug dosage 0.5 μg/kg) [s] | Learning Results EN (drug dosage 0.5 μg/kg) | Learning Results RT (drug dosage 0.5 μg/kg) [s] | Memory Results EN (drug dosage 1 μg/kg) | Memory Results RT (drug dosage 1 μg/kg) [s] | Learning Results EN (drug dosage 1 μg/kg) | Learning Results RT (drug dosage 1 μg/kg) [s] | Overall effect on memory and learning impediment induced by scopolamine (results of Table 1) (summary statement, no dose given)
C/C=C1\[C@H]2C=C(C)C[C@]1(N)c1ccc(=O)[nH]c1C2 [Huperzine A, reference compound] | 0.9 | 1.3 |  |  |  |  |  |  |  |  |  |  |  |  |  |  | 
PyroGlu—Asn—Cys(S—Bu^t)—Pro—Arg [MEP-531] |  |  | obviously improve the memory and learning impediment induced by scopolamine | better effects than Huperzine A | 0.9 | 197.6 | 0.3 | 78.8 | 0.5 | 245.5 | 0.2 | 241.6 | 0.3 | 282.8 | 0.3 | 267.6 | remarkably ameliorate the memory and learning impediment induced by scopolamine

Reference: US20040116656A1, “Memory-enhancing peptides and the use thereof” (priority 2000, published 2004)
